Source: patent US12048691B2 (SPERO THERAPEUTICS, INC., priority 2020, dated 2024)
≈ marks a conversion by molar mass, not a printed value. Structures can show the parent of a compound that is named as a salt. Where two headings read alike, the source gives them in different places. Marks after values point to notes of the source that are not given here. Values belong to the molecule of their own block, whether it stands above or below them.

Assays:
[1] = test system: Enterobacterales overproducing AmpC; experiment: Broth microdilution susceptibility of isolates overexpressing AmpC; assay type: cell-based
Method: (§1) Frozen-form broth microdilution panels were manufactured by JMI Laboratories and contained cation-adjusted Mueller-Hinton broth. Quality assurance was performed by sterility checks, colony counts, and testing CLSI recommended quality control reference strains.

[2] = test system: P. aeruginosa isolates that overproduced AmpC; experiment: as above; assay type: cell-based; conditions: P. aeruginosa (32)
Method: as §1

E. coli [3] = experiment: Broth microdilution MIC against characterized subsets of UTI E. coli (2018-2020); assay type: cell-based; conditions: for MIC50 / MIC90: Escherichia coli; for MIC50: read-out: MIC50; for MIC90: read-out: MIC90
Description: Isolates were collected from medical centers in all 9 US Census Regions and tested by broth microdilution. MIC interpretation was based on CLSI. Isolates that met MIC criteria were subjected to genome sequencing, followed by screening of extended-spectrum b-lactamase (ESBL) genes and epidemiology typing (MLST).

[4] = Particle size distribution of tebipenem pivoxil HBr batches by sieve method; assay type: physicochemical
[5] = test system: bacteremia secondary to cUTI/AP; experiment: Efficacy in patients with cUTI or acute pyelonephritis and associated bacteremia; assay type: in vivo, human
Description: The objective of this analysis was to evaluate the efficacy of TBP-PI-HBr in the subset of patients with associated bacteremia from a study of patients with either cUTI or acute pyelonephritis.

[6] = test system: Vancomycin-susceptible Enterococcus faecalis; experiment: Broth microdilution against Gram-positive clinical isolates; assay type: cell-based; conditions: E. faecalis
Method: The purpose of this study was to investigate the in vitro activity of tebipenem and comparator agents, including ertapenem and meropenem, against a recent collection of Gram-positive isolates associated with clinical infections. The susceptibility of 580 Gram-positive organisms were tested, including: Methicillin-susceptible Staphylococcus aureus (MSSA, 489 isolates), Methicillin-susceptible Staphylococcus epidermidis (MSSE, 31), other methicillin-susceptible coagulase-negative staphylococci (MSCONS, 29), and Vancomycin-susceptible Enterococcus faecalis (31). Bacterial species were identified by JMI Laboratories using standard microbiology methods and matrix-assisted laser desorption ionization-time of flight mass spectrometry (Bruker Daltonics, Bremen, Germany). The isolates were collected in 2018 and 2019 as part of the SENTRY surveillance program and selected to be representative of these species with 45.0% from the United States, 44.3% from Europe, 5.3% from the Asia-Pacific region, and 5.3% from Latin America. Isolates are primarily from pneumonia in hospitalized patients (498 isolates; 85.9%), urinary tract infections (42 isolates; 7.2%), and bloodstream infections (38 isolates; 6.6%). Isolates were tested in a central laboratory (JMI Laboratories) for antimicrobial susceptibility using the CLSI M07 (2018) reference broth microdilution method. JMI Laboratories produced frozen-form 96-well panels and used cation-adjusted Mueller-Hinton broth (CA-MHB) as the testing medium. All categorical interpretations used CLSI M100 (2021) and EUCAST v10.0 (2021) breakpoint criteria, where published. Quality control organisms include Escherichia coli ATCC 25922, Escherichia coli ATCC 35218, Enterococcus faecalis ATCC 29212, Pseudomonas aeruginosa ATCC 27853, and Staphylococcus aureus ATCC 29213 were tested concurrently with clinical isolates.

E. coli [7] = experiment: Susceptibility of E. coli from urinary tract infections, 18 EU countries 2020 (STEWARD); assay type: cell-based
Method: The study assessed the prevalence of resistance and evaluated the activity of oral tebipenem (TBP) and comparators against EC from urinary tract infections.
Results were interpreted using EUCAST criteria. […] ESBL phenotypes were determined by CLSI criteria and sequenced to identify CTX-M-15 genotype and clonal complex ST131.

Molecule: CO/N=C(\C(=O)N[C@@H]1C(=O)N2C(C(=O)[O-])=C(C[N+]3(C)CCCC3)CS[C@H]12)c1csc(N)n1 [Cefepime]
- MIC50 [1]: 0.5 µg/mL (≈ 1.04 µM)
- MIC90 [1]: 128 µg/mL (≈ 266 µM)
- CLSI %1 [2]: 40.6%
- CLSI % R [2]: 12.5%
- CLSI % S [2]: 46.9%

Molecule: CO/N=C(\C(=O)N[C@@H]1C(=O)N2C(C(=O)O)=C(CSc3nc(=O)c(=O)[nH]n3C)CS[C@H]12)c1csc(N)n1 [Ceftriaxone, ceftriaxone]
- % susceptible by CLSI M100 criteria (E. coli [3]; CMYb (33)): 0.0%
- % susceptible by CLSI M100 criteria (E. coli [3]; CTX-M a): 0.0%
- % susceptible by CLSI M100 criteria (E. coli [3]; DHA(7)): 28.6%
- % susceptible by CLSI M100 criteria (E. coli [3]; ESBL (360)): 6.4%
- MIC50 (E. coli [3]; CTX-M a): > 8 µg/mL
- MIC90 (E. coli [3]; CTX-M a): > 8 µg/mL
- MIC50 (E. coli [3]; DHA(7)): 2 µg/mL (≈ 3.61 µM)
- MIC50 (E. coli [3]; ESBL (360)): > 8 µg/mL
- MIC90 (E. coli [3]; ESBL (360)): > 8 µg/mL
- MIC50 (E. coli [3]; Non-ESBL (2035)): ≤ 0.06 µg/mL
- MIC90 (E. coli [3]; Non-ESBL (2035)): 0.12 µg/mL (≈ 0.216 µM)
- % susceptible by CLSI M100 criteria (E. coli [3]; Non-ESBL (2035)): 100%
- % susceptible by CLSI M100 criteria (E. coli [3]; Non-ST131 (203)): 37.9%
- % susceptible by CLSI M100 criteria (E. coli [3]; ST131 (222)): 20.3%
- MIC50 [1]: > 8 µg/mL
- MIC90 [1]: > 8 µg/mL
- CLSI %1 ([1]; Enterobacterales (36)): 13.9%
- CLSI % R ([1]; Enterobacterales (36)): 63.9%
- CLSI % S ([1]; Enterobacterales (36)): 22.2%

Molecule: Br.C[C@@H](O)[C@H]1C(=O)N2C(C(=O)OCOC(=O)C(C)(C)C)=C(SC3CN(C4=NCCS4)C3)[C@H](C)[C@H]12 [Lot 1, Comil-ed]
- particle size distribution, 45 um< [4]: 35%
- particle size distribution, 75 um< [4]: 27%
- particle size distribution, 106 um< [4]: 16%
- particle size distribution, 150 um< [4]: 1%
- particle size distribution, 300 um< [4]: 0%
- particle size distribution, <45 um [4]: 21%

Molecule: C[C@@H](O)[C@H]1C(=O)N2C(C(=O)OCOC(=O)C(C)(C)C)=C(SC3CN(C4=NCCS4)C3)[C@H](C)[C@H]12 [Tebipenem pivoxil HBr, tebipenem pivoxil hydrobromide]
- Clinical cure rate ([5]; EOT): 100%
- Clinical cure rate ([5]; TOC): 97.9%
- Overall response rate ([5]; end-of-treatment (EOT)): 93.6%
- Clinical cure rate ([5]; late-follow-up (LFU) visit): approximately 89%
- Overall response rate ([5]; test-of-cure (TOC)): 72.3%

Molecule: CC1(C)S[C@@H]2[C@H](NC(=O)[C@H](N)c3ccccc3)C(=O)N2[C@H]1C(=O)O [ampicillin]
- Susceptibility rate [6]: 100.0%

- MIC90 (E. coli [7]; Escherichia coli, all E. coli (764) from UTIs): > 8 µg/mL
Molecule: CC1(C)S[C@@H]2[C@H](/N=C/N3CCCCCC3)C(=O)N2[C@H]1C(=O)O [mecillinam]
- Susceptibility rate (E. coli [7]; all E. coli, EUCAST criteria): 88.0%

Molecule: CN(C)c1cc(NC(=O)CNC(C)(C)C)c(O)c2c1C[C@H]1C[C@H]3[C@H](N(C)C)C(O)=C(C(N)=O)C(=O)[C@@]3(O)C(O)=C1C2=O [Tigecycline]
- MIC50 [1]: 0.25 µg/mL (≈ 0.427 µM)
- MIC90 [1]: 1 µg/mL (≈ 1.71 µM)
- CLSI %1 ([1]; Enterobacterales (36)): 5.6%
- CLSI % R ([1]; Enterobacterales (36)): 0.0%
- CLSI % S ([1]; Enterobacterales (36)): 94.4^d %
- MIC range ([1]; Enterobacterales (36)): ≤0.06 to 4 μ/ml

Molecule: Piperacillin-tazobactam
- CLSI %1 ([1]; Enterobacterales (36)): 19.4%
- CLSI % R ([1]; Enterobacterales (36)): 33.3%
- CLSI % S ([1]; Enterobacterales (36)): 47.2%
- MIC50 ([1]; Enterobacterales (36)): 32 μ/ml
- MIC90 ([1]; Enterobacterales (36)): >128 μ/ml
- CLSI %1 [2]: 40.6%
- CLSI % R [2]: 53.1%
- CLSI % S [2]: 6.2%
- MIC50 [2]: 128 μ/ml
- MIC90 [2]: >128 μ/ml
